Source: ChEMBL document CHEMBL1137948, “The design and synthesis of sulfonamides as caspase-1 inhibitors” (Bioorg Med Chem Lett, 2004)
pIC50, pKi: −log10 of the molar value.

Molecular target: T1, Caspase-1 (Homo sapiens, UniProt P29466)
T1 sequence (P29466 whole entry): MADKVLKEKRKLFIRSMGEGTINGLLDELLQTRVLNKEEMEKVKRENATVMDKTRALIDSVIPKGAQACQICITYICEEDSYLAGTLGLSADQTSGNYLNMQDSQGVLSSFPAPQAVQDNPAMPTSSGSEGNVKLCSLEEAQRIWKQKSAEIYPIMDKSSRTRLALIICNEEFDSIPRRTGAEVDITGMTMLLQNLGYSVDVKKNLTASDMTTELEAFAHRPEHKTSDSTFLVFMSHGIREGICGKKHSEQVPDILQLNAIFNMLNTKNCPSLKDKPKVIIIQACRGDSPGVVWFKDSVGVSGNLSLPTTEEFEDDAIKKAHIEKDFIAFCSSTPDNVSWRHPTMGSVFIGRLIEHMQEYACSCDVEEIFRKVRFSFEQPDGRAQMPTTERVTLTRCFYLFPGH
Assay: (§1) Inhibitory activity against caspase-1

Compound	pIC50	pKi
O=C(O)CC(NC(=O)OCc1ccccc1)C(=O)CNS(=O)(=O)Cc1ccccc1 (centres undefined)	3.77	–
CC(C)[C@H](NC(=O)OCc1ccccc1)C(=O)N[C@@H](C)C(=O)NC(CC(=O)O)C(=O)CNS(=O)(=O)CCc1ccccc1 (some centres undefined)	7.14	8.40
O=C(O)CC(NC(=O)OCc1ccccc1)C(=O)CCCCCc1ccccc1 (centres undefined)	2.99	3.92
CC(C)[C@H](NC(=O)OCc1ccccc1)C(=O)N[C@@H](C)C(=O)NC(CC(=O)O)C(=O)CCCCCc1ccccc1 (some centres undefined)	6.01	6.87

Continued by rising pIC50, values first:

pIC50	pKi	Compound
7.15	7.85	CC(=O)N[C@@H](Cc1ccc(O)cc1)C(=O)N[C@H](C(=O)N[C@@H](C)C(=O)NC(CC(=O)O)C(=O)CCCCCc1ccccc1)C(C)C (some centres undefined)
7.60	7.62	C[C@H](NC(=O)[C@H](CCC(=O)O)NC(=O)OCc1ccccc1)C(=O)NC(CC(=O)O)C(=O)CNS(=O)(=O)CCc1ccccc1 (some centres undefined)
8.47	8.40	CC(=O)N[C@@H](Cc1ccc(O)cc1)C(=O)N[C@@H](CCC(=O)O)C(=O)N[C@@H](C)C(=O)NC(CC(=O)O)C(=O)CNS(=O)(=O)CCc1ccccc1 (some centres undefined)

Molecular target: not listed separately
Assay: as §1

pKi	Compound
4.74	O=C(O)CC(NC(=O)OCc1ccccc1)C(=O)CNS(=O)(=O)Cc1ccccc1 (centres undefined)
